Test results: patent US20250255874A1, “Methods for Treating Immune Thrombocytopenia By Administering (R)-2-[3-[4-Amino-3-(2-Fluoro-4-Phenoxy-Phenyl)Pyrazolo[3,4-D]Pyrimidin-1-YL]Piperidine-1-Carbonyl]-4-Methyl-4-[4-(Oxetan-3-YL)Piperazin-1-YL]Pent-2-Enentrile” (Principia Biopharma Inc., priority 2022, published 2025)

Key:
[1] = tested on: spontaneous canine pemphigus foliaceus; test: spontaneous canine pemphigus foliaceus; details: dog, in vivo
[2] = tested on: patients with immune thrombocytopenia who initiated 400 mg BID; test: Clinical predictors of response, exploratory analysis of Phase 1/2 study (univariate logistic regression); format: in vivo, human
Source text: Clinical predictors were selected based on clinical considerations anticipated to be associated with platelet response and evaluated by univariate logistic regression models. For continuous variables, the t test was used to test for differences, whereas for categorical variables, the Fisher exact test was used. PK exposure at steady-state was estimated based on post hoc analysis from a previously established population PK model.

In the case of `CC(C)(C=C(C#N)C(=O)N1CCC[C@@H](n2nc(-c3ccc(Oc4ccccc4)cc3F)c3c(N)ncnc32)C1)N1CCN(C2COC2)CC1` [rilzabrutinib, (R)-2-[3-[4-amino-3-(2-fluoro-4-phenoxy-phenyl)pyrazolo[3,4-d]pyrimidin-1-yl]piperidine-1-carbonyl]-4-methyl-4-[4-(oxetan-3-yl)piperazin-1-yl]pent-2-enenitrile], the anti-inflammatory effects [1] is reported as “rapid and significant anti-inflammatory effects”, the “early responders, proportion of patients” value ([2]; patients who received prior rituximab) is reported as 14% and the “early responders, proportion of patients” value ([2]; patients with no prior rituximab) is reported as 48%. For the same compound, the “responders, proportion of patients” value ([2]; patients with prior rituximab) was 23%, the “responders, proportion of patients” value ([2]; patients without prior TPO-RA) was 64% and the “responders, proportion of patients” value ([2]; patients without prior rituximab) was 57%.
